IC50 data for one compound are collected here from ChEMBL document CHEMBL5727960, “Wee-1 inhibiting pyrazolopyrimidinone compounds” (2020).

This assay concerns the target Wee1-like protein kinase (Homo sapiens, UniProt P30291). Put plainly: Kinase Activity Assay: All reactions took place in 60 μL volumes in reaction buffer containing 40 mM Tris-HCl and 20 mM magnesium chloride, supplemented with 0.1 mg/mL bovine serum albumin and 2 mM DTT. Compounds were serially diluted in buffer and 5 μL of each concentration pipetted into a white 384 well plate (Sigma Aldrich M6186). A 5 μL aliquot of the Wee-1 enzyme was added to each well and the plate centrifuged for 1 min to ensure mixing of the enzyme and inhibitor. The plate was incubated at room temperature for 30 minutes before the addition of 2.0 μg/mL of substrate and 30 μM ATP in a 5 μL aliquot. The plate was centrifuged for one minute and incubated for 1 h at RT. 15 μL of ADP-Glo stop reagent was added to each well to quench the reaction and deplete unconverted ATP. The plate was incubated for a further 40 min in the dark at RT. 30 μL of ADP-Glo kinase detection reagent was added to each well, converting ADP to ATP, […]. The plate was shaken for 1 min, and incubated in the dark for an additional hour.

Chain of Wee1-like protein kinase (P30291 whole entry): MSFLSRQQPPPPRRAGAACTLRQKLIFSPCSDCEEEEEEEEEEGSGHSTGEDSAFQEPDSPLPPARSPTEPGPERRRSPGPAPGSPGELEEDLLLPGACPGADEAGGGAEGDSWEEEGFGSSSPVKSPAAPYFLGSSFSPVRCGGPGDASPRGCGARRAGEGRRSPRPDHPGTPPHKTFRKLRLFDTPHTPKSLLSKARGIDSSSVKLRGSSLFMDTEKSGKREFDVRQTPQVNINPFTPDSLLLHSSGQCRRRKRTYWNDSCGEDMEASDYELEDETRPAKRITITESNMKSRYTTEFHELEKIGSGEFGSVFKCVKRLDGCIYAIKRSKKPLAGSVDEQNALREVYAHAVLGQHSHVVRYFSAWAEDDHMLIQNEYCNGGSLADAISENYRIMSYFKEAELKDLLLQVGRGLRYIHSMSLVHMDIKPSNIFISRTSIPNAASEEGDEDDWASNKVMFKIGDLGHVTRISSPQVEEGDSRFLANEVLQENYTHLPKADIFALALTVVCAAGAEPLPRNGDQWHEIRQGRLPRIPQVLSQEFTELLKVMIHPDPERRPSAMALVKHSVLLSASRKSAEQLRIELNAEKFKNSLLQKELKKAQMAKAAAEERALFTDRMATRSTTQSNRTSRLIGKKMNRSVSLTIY

On to `C=CCn1c(=O)c2cnc(Nc3ccc(N4CCOCC4)nc3)nc2n1-c1cccc(N=S(C)(C)=O)n1`, for which the midpoint of inhibition, the IC50, lay at 0.8 nM.

As usually defined, the IC50 is the concentration needed to halve the response being measured.
